This note sets out measurements from PMC8303725 (International Journal of Molecular Sciences, 2021).

Assay [1] addresses T1, Human Topo I (topoisomerase I) (Homo sapiens, UniProt P11387).
T1 construct: gene TOP1
T1 sequence (P11387 2-765): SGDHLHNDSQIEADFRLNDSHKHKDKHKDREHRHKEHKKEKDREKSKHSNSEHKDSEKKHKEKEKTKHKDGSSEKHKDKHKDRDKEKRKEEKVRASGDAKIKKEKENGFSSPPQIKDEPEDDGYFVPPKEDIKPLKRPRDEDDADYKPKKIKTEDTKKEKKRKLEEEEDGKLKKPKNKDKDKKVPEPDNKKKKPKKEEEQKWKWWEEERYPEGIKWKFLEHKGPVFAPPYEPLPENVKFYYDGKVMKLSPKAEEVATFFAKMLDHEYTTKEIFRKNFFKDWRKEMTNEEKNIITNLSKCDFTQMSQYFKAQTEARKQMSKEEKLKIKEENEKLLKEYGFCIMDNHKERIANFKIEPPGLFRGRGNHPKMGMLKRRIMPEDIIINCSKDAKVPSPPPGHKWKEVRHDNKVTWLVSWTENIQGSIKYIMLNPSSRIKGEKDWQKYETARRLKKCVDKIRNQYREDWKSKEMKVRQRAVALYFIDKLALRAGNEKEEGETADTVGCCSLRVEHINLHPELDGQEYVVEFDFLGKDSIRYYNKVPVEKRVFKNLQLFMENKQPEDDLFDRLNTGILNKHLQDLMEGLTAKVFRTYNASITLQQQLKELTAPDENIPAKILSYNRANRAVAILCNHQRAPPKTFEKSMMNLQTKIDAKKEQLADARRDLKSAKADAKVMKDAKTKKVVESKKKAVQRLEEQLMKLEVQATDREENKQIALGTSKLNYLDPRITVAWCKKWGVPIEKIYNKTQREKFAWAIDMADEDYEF
In words: Topo I DNA relaxation fluorescence plate assay (Inspiralis). Format: biochemical.

Assay [2] relates to nicked decamer 1 (nicked DNA duplex with PEG(6) tethers) (DNA, duplex, nick between T5 and G6; PEG6 tether at both ends of the duplex, joining the strands into one chain) GCGTT/GTCGC/GCGACAACGC
In words: MALDI-MS of reaction product. The following applies: 25 mM NaCl, 25 mM K3PO4; covalent; biohybrid peak m/z 7290.9; pH 6.

Assay [3] has the same test system. In words: 1H/13C HSQC with 24-13C compound. The following applies: 25 mM NaCl, 25 mM K3PO4; covalent; pH 6; 298 K; site tentatively NH2 of a base in nick.
For assay [4] the test system is unchanged. In words: DOSY NMR. Particulars: 25 mM NaCl, 25 mM K3PO4; D2O, pH 6, 25 °C; filtered mother liquor; equal diffusion coefficients; bound species may include bioconjugate, 4, SN38.

Read-outs that look alike come from different tables or passages of the source.

For `CCc1c2c(nc3ccc(O)cc13)-c1cc3c(c(=O)n1C2)COC(=O)[C@]3(O)CC` [SN38], the IC50 in assay [1] (read-out: IC50) was 40.3 µM.
`CCc1c2c(nc3ccc(O)c(CNC)c13)-c1cc3c(c(=O)n1C2)COC(=O)[C@]3(O)CC` [compound 2, 7-ethyl-9-(N-methylamino)methyl-10-hydroxycamptothecin]: the binding result in assay [2] is “yes”. This molecule registered an IC50 in assay [1] of 101 µM.
In the case of `CCc1c2c(nc3ccc(O)c(CN4CCOCC4)c13)-c1cc3c(c(=O)n1C2)COC(=O)[C@]3(O)CC` [compound 3, 7-ethyl-9-(N-morpholino)methyl-10-hydroxycamptothecin], the binding entry in assay [3] and in assay [4] was “yes” throughout. In assay [1], this molecule showed an IC50 of 48.7 µM.

The IC50 is the concentration needed to halve the response being measured.
